The record followed here is patent US20070191490A1, “Withacnistin compounds for treatment of cancer” (priority 2006, published 2007).

The test system of one assay is phosphotyrosine-STAT3. Kind of assay: Inhibition of phosphotyrosine-STAT3 levels in tumor cell lines (Western blotting). It is filed as cell-based, human. The protocol: (§1) Western blotting. Treated cell samples were lysed in 30 mM HEPES, pH 7.5, 10 mM NaCl, 5 mM MgCl2, 25 mM NaF, 1 mM EGTA, 1% Triton X-100, 10% glycerol, 2 mM sodium orthovanadate, 10 μg/ml aprotinin, 10μ/ml soybean trypsin inhibitor, 25 μg/ml leupeptin, 2 mM PMSF, and 6.4 mg/ml p-nitrophenylphosphate. Phospho-STAT3, phospho-AKT, phospho-Src, and phospho-p42/p44 MAPK antibodies were obtained from Cell Signaling Technologies (Cambridge, Mass., USA). Phospho-JNK and whole STAT3 antibodies were purchased from Santa Cruz Biotechnology (Santa Cruz, Calif., USA); phospho-JAK2 antibody came from Upstate Biotechnology (Lake Placid, N.Y., USA). Membranes were blocked in either 5% milk in phosphate-buffered saline (PBS), pH 7.4, containing 0.1% Tween-20 (PBS-T) or 1% BSA in tris-buffered saline (TBS), pH 7.5, containing 0.1% Tween-20 (TBS-T). Phospho-specific antibodies (excepting P-MAPK and P-JNK) were incubated in 1% BSA in TBS-T while all other antibodies were diluted in 5% milk in PBS-T for either 2 h at room temperature or overnight at 4° C. HRP-conjugated secondary antibodies (Jackson ImmunoResearch, West Grove, Pa., USA) were diluted in 5% milk in either PBS-T or TBS-T at 1:1000 dilution for 1 h at room temperature. Western blots were visualized using enhanced chemiluminescence.
(§2) To this end, A549 cells (a human non-small-cell lung carcinoma line) were treated with either vehicle, cucurbitacin analogs A, B, E, or I, or withacnistin mixture (10 ∥M) for 4 hours and the cell lysates processed for Western blotting with antiphosphotyrosine STAT3 (Y705) antibody or antiphosphotyrosine JAK2 (Y1007, Y1008) antibody as described under Materials and Methods.
(§3) As further support of the specific antiphosphotyrosine STAT3, but not antiphosphotyrosine JAK2, activity of withacnistin, A549 cells, as well as two breast carcinoma cell lines (MDA-MB-435 and MDA-MB-468) that also express constitutively activated JAK2 and STAT3, were treated with the withacnistin mixture at various concentrations, and determined IC50 values of inhibition of STAT3 and JAK2 activation.
In general terms: A western blot detects proteins with antibodies after separation by electrophoresis.

The test system of the next assay is phosphotyrosine-JAK2. Put plainly: Inhibition of phosphotyrosine-JAK2 levels in tumor cell lines (Western blotting). It is filed as cell-based, human. Conditions: for levels of P-JAK2: A549 cells, 10 μM, 4 hours. The protocol: as §1, §2, §3
The next assay deals with A549 tumors. Kind of assay: Antitumor activity in nude mouse xenograft model, A549. The assay is classed as in vivo. Conditions: nude mice. The text has this: (§4) Antitumor activity in the nude mouse tumor xenograft model. Nude mice (Charles River, Wilmington, Mass., USA) were maintained in accordance with the Institutional Animal Care and Use Committee (IACUC) procedures and guidelines. A549 cells were harvested, resuspended in PBS, and injected subcutaneously (s.c.) into the right and left flank (1×10^7 cells per flank) of 8-week-old female nude mice as reported previously (Blaskovich, M. A. et al. Cancer Res., 2003, 63:1270-1279). When tumors reached about 150 mm^3, animals were randomized (four animals per group; two tumors per animal) and dosed intraperitoneally (i.p.) either with cucurbitacin analogs (0.5 or 1 mg/kg/day, i.p.) in 20% DMSO in water or with an equal volume of vehicle control. The tumor volumes were determined by measuring the length (l) and the width (w) and calculating the volume (V=lw^2/2) as described previously (Blaskovich, M. A. et al. Cancer Res., 2003, 63:1270-1279). Statistical significance between control and treated animals were evaluated by using Student's t-test.
(§5) To determine the ability of the cucurbitacin analogs and withacnistin to inhibit tumor growth in vivo, the antitumor activity of the cucurbitacin analogs and withacnistin against both A549 and v-Src/3T3 tumors in a nude mouse xenograft model was evaluated. When the tumors became palpable (at volumes of approximately 100-150 mm^3), the mice were treated either with vehicle control or 1 mg/kg/day of the cucurbitacins or the withacnistin mixture. Tumor volumes were monitored by caliper measurement as previously described (Blaskovich, M. A. et al. Cancer Res., 2003, 63:1270-1279) and under Materials and Methods.

In another assay the test system is v-Src/3T3 tumors. Kind of assay: Antitumor activity in nude mouse xenograft model, v-Src/3T3. It is filed as in vivo. Conditions: v-Src/3T3 xenograft, nude mice.
Source text: as §4, §5
Withacnistin inhibited 57% of tumor growth while Cuc I, B, and E inhibited 45, 40, and 42% of tumor growth, respectively (FIG. 3 and Table 2).

[1] abbreviates: 0.5 mg/kg/day i.p., 0.5 mg/kg/day.
Where [2] appears, read: 1 mg/kg/day i.p., Wit = withacnistin mixture.

Several values for one entry are separate records, joined by “and”; a condition that tells them apart may be missing. Equal values may be shown once. Read-outs that look alike come from different tables or passages of the source.

Turning to `CC(=O)OC(C)(C)/C=C/C(=O)[C@](C)(O)[C@H]1[C@H](O)C[C@@]2(C)[C@@H]3CC=C4[C@H](C[C@H](O)C(=O)C4(C)C)[C@]3(C)C(=O)C[C@]12C` [Cuc B, cucurbitacin B], the “levels of P-STAT3” value in the assay on phosphotyrosine-STAT3 is listed as “inhibited”. Also, the “levels of P-JAK2” value in the assay on phosphotyrosine-JAK2 was “inhibited”. Further, the “% Inhibition of tumor growth” value in the assay with A549 tumors (setting [1]) was 53.6% and 53.6^b %; in the assay on v-Src/3T3 tumors (setting [1]), 40% and 40^a %.
“3-ethoxy-2,3-dihydrowithacnistin [EDH-Wit]”: the P-STAT3 levels entry with phosphotyrosine-STAT3 (A549 cells (FIG. 8A)) is on record as “suppressed neither”. The P-JAK2 levels result with phosphotyrosine-JAK2 (A549 cells (FIG. 8A)) was “suppressed neither”.
For the compound `CC(=O)OC(C)(C)/C=C/C(=O)[C@](C)(O)[C@H]1[C@H](O)C[C@@]2(C)[C@@H]3CC=C4[C@@H](C=C(O)C(=O)C4(C)C)[C@]3(C)C(=O)C[C@]12C` [Cuc E, cucurbitacin E], in the assay with phosphotyrosine-STAT3 (A549 cells, 10 μM, 4 hours), the “levels of P-STAT3” value was “inhibited”. In addition, the “levels of P-JAK2” value in the assay on phosphotyrosine-JAK2 is “inhibited”. Also, the “% Inhibition of tumor growth” value with A549 tumors (setting [2]) was found to be 48.5%; with v-Src/3T3 tumors (setting [2]), 42%.
